Columns and labels:
[1] = test system: T-type calcium channels (CaV3.1, CaV3.2, CaV3.3) mRNA; test: Quantitative PCR of T-type Ca2+ channel expression in the hippocampus of post-SE rats; format: in vivo, rat; conditions: 9 weeks after treatment ended
Protocol: RNA was extracted using the RNeasy Mini Kit (QIAGEN), DNA elimination columns were used to remove any genomic DNA contamination in accordance with the manufacturer's protocol. RNA concentration and purity was determined using spectrophotometric readings with the NanoDrop 3000 spectrophotometer (NanoDrop Technologies). 1 μg RNA was reverse transcribed to cDNA using the Omniscript RT Kit (QIAGEN) following the manufacturer's protocol. T-type Ca^2+ channel expression was assessed using quantitative polymerase chain reaction (qPCR). Each 10 μl reaction volume consisted in 25 ng of cDNA, 5 μl of TaqMan Universal PCR Master Mix 2× and custom designed TaqMan using catalogued 20× Taqman gene expression assays for CaV3.1 (Assay ID Rn00581051_m1, Applied Biosystems), CaV3.2 (Assay ID Rn01460348_m1, Applied Biosystems), CaV3.3 (Assay ID Rn01505208_m1, Applied Biosystems). Relative mRNA expression of the CaV3.1, CaV3.2 and CaV3.3 were compared to the geometric average of the mRNA levels of the housekeeping genes Rplp1 (Rn03467157_gH), Rpl13a (Rn00821946_g1) and Ywhaz (Assay ID: Rn00755072_m1). Analysis was performed using the ΔΔCT method. The average of the relative expression levels was compared between the different treatment groups.

post-SE rats = test: Forced swim test in post-SE rats; format: in vivo, rat; conditions: Z944 60 mg/kg/day for 4 weeks, p<0.05
Protocol: All behavioural tests were performed in a light-controlled (˜110 lux), closed, quiet and clean room in the. Behavioural testing was performed in a blinded manner to the treatment groups. All of the behavioural tests were video recorded for future analysis. OF, EPM and MWM sessions were filmed using a digital camera mounted above the centre of the arena, which was connected to a computer for the recording and objective analysis of digitized behavioural tests (EthoVision 3.0.15, Noldus). The first behavioural test was performed one week after the last EEG recording. The different behavioural tests/session were performed 24 hours apart from each other. All tests were scored by an experienced observer who was blind to the experimental conditions of the animals.
The FST was performed in a clear Plexiglas cylinder (50 cm long×30 cm diameter) filled with water (25±1° C.). The FST was divided into a 15-min training session and a 5-min test session performed 24 h later, as previously described. Immobility time and swimming time were analysed.

## CC(C)(C)NC(=O)CN1CCC(CNC(=O)c2cc(F)cc(Cl)c2)CC1 [Z944]
[1]
  mRNA expression of T-type calcium channels in the hippocampus: Reduced mRNA Expression
post-SE rats
  forced swim test immobility time: vehicle had an increased immobility time when compared to both sham groups and post-SE+Z944 group

Source: patent US20210128537A1, “T-TYPE CALCIUM CHANNEL MODULATORS AND METHODS OF USE THEREOF” (Praxis Precision Medicines, inc., priority 2016, published 2021)
